One data set concerns OATP1B1/3. Kind of data set: Substrate of transporter OATP1B1/3. In kind it is in vitro ADME.
Another data set concerns the target T1, BCRP (Homo sapiens, UniProt Q9UNQ0).
T1 sequence (Q9UNQ0 1-655): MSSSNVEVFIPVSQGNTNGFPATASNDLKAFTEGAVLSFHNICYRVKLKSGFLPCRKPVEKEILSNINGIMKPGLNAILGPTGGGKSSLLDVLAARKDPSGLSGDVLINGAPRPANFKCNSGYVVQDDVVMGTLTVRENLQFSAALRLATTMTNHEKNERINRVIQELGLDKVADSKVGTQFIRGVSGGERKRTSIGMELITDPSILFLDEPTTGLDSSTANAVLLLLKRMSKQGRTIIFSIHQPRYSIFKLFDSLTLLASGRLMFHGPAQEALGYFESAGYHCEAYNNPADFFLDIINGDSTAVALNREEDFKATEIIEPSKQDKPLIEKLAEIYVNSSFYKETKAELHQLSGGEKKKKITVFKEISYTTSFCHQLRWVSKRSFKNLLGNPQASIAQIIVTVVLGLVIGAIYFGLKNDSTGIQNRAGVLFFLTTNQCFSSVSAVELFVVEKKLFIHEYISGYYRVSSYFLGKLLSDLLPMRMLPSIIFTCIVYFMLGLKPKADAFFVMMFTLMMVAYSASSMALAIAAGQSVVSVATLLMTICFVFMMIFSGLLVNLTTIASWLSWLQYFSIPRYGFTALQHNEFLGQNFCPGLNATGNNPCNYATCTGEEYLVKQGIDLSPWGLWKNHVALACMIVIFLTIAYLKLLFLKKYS
Kind of data set: Substrate of transporter BCRP. It counts as in vitro ADME.

The structures appear in SMILES notation.

For the compound `CC(C)(C)[C@@H]1NC(=O)O[C@@H]2CCC[C@H]2OC/C=C/C(F)(F)c2nc3ccccc3nc2O[C@@H]2C[C@@H](C(=O)N[C@]3(C(=O)NS(=O)(=O)C4(C)CC4)C[C@H]3C(F)F)N(C2)C1=O` [Compound 1], the Substrate of transporter entry with OATP1B1/3 was “OATP1B1/3”. As for `COC(=O)N[C@H](C(=O)N1CCC[C@H]1c1nc2cc([C@H]3CC[C@H](c4cc5nc([C@@H]6CCCN6C(=O)[C@@H](NC(=O)OC)[C@@H](C)OC)[nH]c5cc4F)N3c3cc(F)c(N4CCC(c5ccc(F)cc5)CC4)c(F)c3)c(F)cc2[nH]1)[C@@H](C)OC` [Compound 2], the Substrate of transporter result at BCRP is recorded as “not excluded”.

(Values after US20210023012A1, “Solid Pharmaceutical Compositions for Treating HCV” (AbbVie Inc., priority 2019, published 2021).)
